Measurements reported in patent publication US6395723B2, “Method of providing coginition enhancement with 5α-pregnan-3β-ol-20-one sulfate” (Wyeth, priority 1997, dated 2002).
Where a name gives a salt, the structure may show the parent alone. Blank lines part the entries; values can stand above or below the molecule they belong to.

What was measured:
Format in all cases: cell-based
[1] = test system: potassium channel currents; test: Whole cell recording of potassium currents from cultured hippocampal neurons; conditions: 2 μM, p=0.0006
Procedure: (§1) The neuroprotective and cognition enhancing effects of the compounds of this invention were evaluated in an in vitro standard pharmacological test procedure which measured the effects of 5α-pregnan-3β-ol-20-one 3-sulfate ester sodium salt, as a representative compound of this invention, on calcium and potassium channel currents. Briefly, the following procedure was used.
(§2) Whole cell recording techniques were used to record calcium and potassium currents from cultured hippocampal neurons. The compounds to be evaluated were made fresh each day in a 400 μM ethanol stock solution. The test compounds were diluted in saline to obtain a final concentration of 2 μM. The amplitude of calcium or potassium currents in control, test compound, and washout solutions was measured from at least 10 current traces for each condition. To compensate for rundown of the calcium current with time, control and washout currents were averaged. The current amplitude with drug was divided by the averaged control and washout current to determine the percent change. The means, standard deviations and errors for each test compound were calculated and significance from control was determined using the paired T-Test.

progesterone receptors = biological target: T1, progesterone receptors (Homo sapiens, UniProt P06401); test: Stimulation of alkaline phosphatase enzyme activity in T47D cells (progestational activity); conditions: for concentrations required for activity (alkaline phosphatase induction): T47D cells, reference progestins
T1 construct: endogenous in cells; host or cells: T47D human breast cancer cells
T1 sequence (P06401 1-933): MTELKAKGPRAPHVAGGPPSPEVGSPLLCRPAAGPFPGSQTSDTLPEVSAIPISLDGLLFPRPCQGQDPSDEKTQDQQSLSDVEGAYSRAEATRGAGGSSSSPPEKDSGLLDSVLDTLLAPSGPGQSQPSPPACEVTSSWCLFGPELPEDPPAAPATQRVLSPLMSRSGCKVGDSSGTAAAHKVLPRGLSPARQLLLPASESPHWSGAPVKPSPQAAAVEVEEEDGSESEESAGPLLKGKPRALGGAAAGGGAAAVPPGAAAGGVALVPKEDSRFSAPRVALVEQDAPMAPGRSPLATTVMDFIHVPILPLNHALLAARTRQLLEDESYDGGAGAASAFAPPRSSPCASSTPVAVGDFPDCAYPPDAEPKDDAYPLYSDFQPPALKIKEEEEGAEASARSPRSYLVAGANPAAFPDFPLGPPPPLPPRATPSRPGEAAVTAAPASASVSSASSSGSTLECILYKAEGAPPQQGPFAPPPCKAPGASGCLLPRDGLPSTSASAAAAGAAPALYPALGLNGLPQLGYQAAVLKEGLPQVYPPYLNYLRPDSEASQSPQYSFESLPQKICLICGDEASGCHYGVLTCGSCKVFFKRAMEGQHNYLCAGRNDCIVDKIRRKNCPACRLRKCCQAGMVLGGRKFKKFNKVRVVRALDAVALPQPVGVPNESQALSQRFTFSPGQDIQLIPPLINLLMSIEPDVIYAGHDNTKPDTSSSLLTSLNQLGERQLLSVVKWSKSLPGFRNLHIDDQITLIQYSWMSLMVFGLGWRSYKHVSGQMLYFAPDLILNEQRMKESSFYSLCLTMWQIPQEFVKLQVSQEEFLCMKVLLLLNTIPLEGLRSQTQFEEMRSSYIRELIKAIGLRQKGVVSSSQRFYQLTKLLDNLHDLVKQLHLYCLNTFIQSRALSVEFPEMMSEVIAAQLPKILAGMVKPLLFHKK
Description: In this test procedure, the progestational activity of a compound is quantified based on its stimulation of alkaline phosphatase enzyme activity in T47D cells, a human breast cancer cell line which expresses high levels of progesterone receptors. This is a well established test procedure in which both the progestin receptors and the response stimulated by activated progestin receptors are endogenous to the cells. Cells are pre-conditioned in low serum medium for one day and then treated with test compounds.

calcium channel currents = test: Whole cell recording of calcium currents from cultured hippocampal neurons; conditions: 2 μM, p=0.044
Procedure: as §1, §2

SMILES: CC(O)C1CCC2C3CCC4CC(O)CCC4(C)C3CCC12C (stereo not drawn) [5α-Pregnan-3β,20β-diol]
increase of potassium channel currents versus control [1]: 21.76±2.40%

concentrations required for activity (alkaline phosphatase induction) (progesterone receptors): low nanomolar
SMILES: CC(=O)O[C@]1(C(C)=O)CC[C@H]2[C@@H]3C[C@H](C)C4=CC(=O)CC[C@]4(C)[C@H]3CC[C@@]21C [medroxyprogesterone acetate]

SMILES: CC(=O)[C@H]1CC[C@H]2[C@@H]3CC[C@H]4C[C@@H](OS(=O)(=O)O)CC[C@]4(C)[C@H]3CC[C@]12C [5α-pregnan-3β-ol-20-one 3-sulfate ester sodium salt]
IC50 (progesterone receptors): 5 µM
decrease of calcium channel currents versus control (calcium channel currents): 4.64±1.64%

concentrations required for activity (alkaline phosphatase induction) (progesterone receptors): low nanomolar
SMILES: CC(=O)[C@H]1CC[C@H]2[C@@H]3CCC4=CC(=O)CC[C@]4(C)[C@H]3CC[C@]12C [progesterone]
